No end group written: not given here.

The text below walks through data of paper PMC6115767, “Soybean- and Lupin-Derived Peptides Inhibit DPP-IV Activity on In Situ Human Intestinal Caco-2 Cells and Ex Vivo Human Serum” (Nutrients, 2018).

For series [1] the following is noted: cited from earlier work.
The next series deals with intestinal Caco-2 cells. As to conditions: cited from earlier work. Here is the method: Considered all of these aspects, using live intestinal Caco-2 cells, experiments were performed to investigate in detail the ability of Lup1 and Soy1 to inhibit DPP-IV activity, in the presence of BB proteolytic activity.
Series [2] deals with T1, DPP-IV (in situ, human intestinal Caco-2 cells) (Homo sapiens, UniProt P27487).
T1 sequence (P27487 whole entry): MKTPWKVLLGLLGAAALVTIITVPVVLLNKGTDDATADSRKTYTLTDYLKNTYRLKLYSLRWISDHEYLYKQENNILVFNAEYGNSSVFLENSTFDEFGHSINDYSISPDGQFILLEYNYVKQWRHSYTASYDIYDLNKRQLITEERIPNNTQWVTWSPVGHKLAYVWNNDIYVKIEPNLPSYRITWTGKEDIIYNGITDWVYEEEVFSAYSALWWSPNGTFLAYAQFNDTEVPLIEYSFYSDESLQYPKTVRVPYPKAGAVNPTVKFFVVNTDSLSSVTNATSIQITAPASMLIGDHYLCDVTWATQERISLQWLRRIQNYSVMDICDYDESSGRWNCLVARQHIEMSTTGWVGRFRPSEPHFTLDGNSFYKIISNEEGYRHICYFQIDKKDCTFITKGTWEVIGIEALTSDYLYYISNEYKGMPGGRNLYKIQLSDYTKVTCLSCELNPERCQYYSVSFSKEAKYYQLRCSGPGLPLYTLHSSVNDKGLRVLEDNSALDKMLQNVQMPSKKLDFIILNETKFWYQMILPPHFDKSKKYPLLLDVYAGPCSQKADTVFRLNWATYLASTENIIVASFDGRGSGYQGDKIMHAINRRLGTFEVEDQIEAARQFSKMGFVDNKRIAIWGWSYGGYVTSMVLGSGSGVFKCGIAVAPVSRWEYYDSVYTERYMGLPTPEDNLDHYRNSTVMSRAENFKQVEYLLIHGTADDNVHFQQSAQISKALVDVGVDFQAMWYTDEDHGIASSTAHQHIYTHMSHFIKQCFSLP
Protocol: (§1) Caco-2 cells, obtained from INSERM (Paris, France), were routinely sub-cultured at 50% density [22] and maintained at 37 °C in a 90% air/10% CO2 atmosphere in DMEM containing 25 mM of glucose, 3.7 g/L of NaHCO3, 4 mM of stable L-glutamine, 1% nonessential amino acids, 100 U/L of penicillin, and 100 µg/L of streptomycin (complete medium), supplemented with 10% heat-inactivated fetal bovine serum (FBS; Hyclone Laboratories, Logan, UT, USA).
(§2) The medium was regularly changed three times a week. Caco-2 cells DPP-IV activity was assayed on days 2, 4, and 6 from seeding.
Series [3] concerns the target T2, circulating DPP-IV in human serum (Homo sapiens, UniProt P27487).
T2 construct: a soluble form of DPP-IV lacking the cytoplasmic and transmembrane domains is present in plasma and other body fluids; from tissue; host or cells: human serum from a healthy volunteer
Nature of the series: Ex vivo circulating DPP-IV activity assay in human serum (Gly-Pro-AMC). Format: biochemical. As to conditions: 24 h at 37 °C, 50 µM Gly-Pro-AMC final, three experiments in triplicate. On the procedure:
Human serum samples prepared from freshly collected venous blood from a healthy volunteer were aliquoted 40 µL/well in black 96-well plates and 10 µL of each inhibitor were added for 24 h at 37 °C. […] Subsequently, 50 µL of 100 µM Gly-Pro-AMC was added to each well to achieve a final substrate concentration of 50 µM.

Series [4] concerns the target T1, DPP-IV (in situ, human intestinal Caco-2 cells). Nature of the series: In situ DPP-IV activity assay on 2-, 4- and 6-day Caco-2 cells (Gly-Pro-AMC). As to conditions: for reduction of in situ DPP-IV activity vs control: 2-day Caco-2 cells, 100 µM peptide, 1 h pre-incubation, 50 µM Gly-Pro-AMC, 10 min, three experiments in triplicate.
Protocol: as §1, §2

T2 sequence (P27487 39-766 limits assumed): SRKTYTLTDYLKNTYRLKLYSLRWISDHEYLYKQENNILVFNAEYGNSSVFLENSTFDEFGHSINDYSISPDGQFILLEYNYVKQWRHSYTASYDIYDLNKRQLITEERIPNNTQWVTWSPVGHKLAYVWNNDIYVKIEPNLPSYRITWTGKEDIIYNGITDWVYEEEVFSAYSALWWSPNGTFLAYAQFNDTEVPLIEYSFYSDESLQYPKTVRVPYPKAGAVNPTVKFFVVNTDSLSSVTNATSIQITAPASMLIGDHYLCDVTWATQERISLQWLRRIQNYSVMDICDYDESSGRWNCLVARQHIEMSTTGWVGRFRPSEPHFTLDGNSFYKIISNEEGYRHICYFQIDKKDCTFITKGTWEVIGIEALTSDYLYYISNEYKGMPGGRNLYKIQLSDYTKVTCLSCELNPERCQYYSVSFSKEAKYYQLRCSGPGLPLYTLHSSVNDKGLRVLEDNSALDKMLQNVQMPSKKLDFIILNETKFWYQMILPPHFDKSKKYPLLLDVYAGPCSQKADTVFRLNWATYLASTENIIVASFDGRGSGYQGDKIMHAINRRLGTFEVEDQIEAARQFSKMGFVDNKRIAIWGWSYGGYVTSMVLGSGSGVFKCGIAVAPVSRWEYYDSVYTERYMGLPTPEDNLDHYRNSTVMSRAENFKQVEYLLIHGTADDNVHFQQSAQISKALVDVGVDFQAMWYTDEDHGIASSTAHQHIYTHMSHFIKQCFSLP

On to `N[C@@H](CC(=O)N1CCn2c(nnc2C(F)(F)F)C1)Cc1cc(F)c(F)cc1F` [sitagliptin, Sitagliptin], for which, in series [1], the “absorption in vivo (in words)” value is recorded as “rapidly absorbed”.

For IAVPTGVA [Soy1], the breakdown fragments formed result with intestinal Caco-2 cells (Caco-2 cells, already after 2 h of incubation) is “IAVPT and AVPTGVA”. In the series with intestinal Caco-2 cells (Caco-2 cells), the “susceptibility to intestinal endopeptidases (in words)” value is “susceptible to the action of intestinal endopeptidases”. Further, the “in situ IC50 compared with in vitro IC50” value in series [2] is 2 fold. In addition, in series [3] (100 µM peptide), the “decrease of circulating DPP-IV activity vs control” value (from here on “decrease”) is listed as 27.7%. The “decrease” value in series [3] (300 µM peptide) amounted to 35.0%. For the same molecule, in series [4], the IC50 (commonly the point on the concentration scale where inhibition reaches its midpoint) worked out at 223 µM and the “reduction of in situ DPP-IV activity vs control” value is 50%.

As for LTFPGSAED [Lup1], the “stability to apical proteases (in words)” value with intestinal Caco-2 cells (differentiated Caco-2 cells, apical proteases, after 4 h of incubation) is “not degraded”. Moreover, in the series on intestinal Caco-2 cells (differentiated intestinal Caco-2 cells), the “absorption by Caco-2 cells (in words)” value was “absorbed intact”. The “decrease” value in series [3] (100 µM peptide) is listed as 18.1%. Besides, in series [3] (300 µM peptide), the “decrease” value was 24.7%. Moreover, in series [4], the IC50 worked out at 207 µM and the “reduction of in situ DPP-IV activity vs control” value was 50%. Moreover, the “in situ IC50 compared with in vitro IC50 (in words)” value in series [4] (2-day Caco-2 IC50 vs in vitro purified enzyme IC50) is “in agreement with that obtained with the in vitro assay”.
